# Results taken from patent US12329801B2, “Regenerative polypeptides and uses thereof” (JUVENA THERAPEUTICS, INC., priority 2021, dated 2025).
# What was measured:
# Aged human myoblasts = experiment: Myogenic transcription factor expression in aged human myoblasts (qPCR); format: cell-based
# Experimental: RNA was isolated from each well (RNeasy Mini Kit, Qiagen) and cDNA was obtained by reverse-transcription (High Capacity Reverse Transcription Kit, Thermo Fisher Scientific). Real-time quantitative PCR was performed using QuantStudio3 (Thermo Fisher).
# Aged human myoblasts were cultured in well plates. […] Cells that had been cultured with IGF2 had increases in levels of MYOG at 48 hours and levels of MYOD at 72 hours.
# [1] = Backbone cleavage on expression from CHO cells (reducing SDS-PAGE, Western blot); set-up: species or system Chinese Hamster; conditions: expressed from CHO cells
# Experimental: The amino acid backbone of IGF2 is cleaved when expressed from Chinese Hamster Ovary (CHO) cells (FIG. 13A) as visualized on a reducing SDS-PAGE and Western blot (FIG. 13B). The CHO cells were grown in a 37° C. incubator with a humidified atmosphere of 8% CO2 on an orbital shaker platform with a shaking speed 125 rpm to reach 4E6 cells/mL, followed by transferring the calculated volume of cells to fresh, pre-warmed ExpiCHO™ Expression Medium in a shake flask. Incubated flasks in a 37° C. incubator with a humidified atmosphere of 8% CO2 shook on an orbital shaker platform until cultures reached a density of 4×106−6×10^6 viable cells/mL.
# After mixing each plasmid with 100 ul SFM in a microtube; ExpiFectamine (8 ul ×10.5=84 ul) with OptiPro medium (92 ul×10.5=966 ul) in a microtube; adding 100 ul into the plasmid tube and mix by pipetting; After 5 min, add 200 ul into each well and swirl to mix. mix enhancer (15×10.2=153 ul) with feed ([…]), add 615 ul into each well. Culture supernatant collected at intervals was spun down at low speed and high speed, then frozen at −80 deg. Aliquots were analyzed for protein concentration by nanodrop, and then an equivalent amount loaded onto 4-12% SDS-PAGE gels for molecular weight distribution analysis. […]
# DM1 human myoblast = experiment: Myogenic gene expression fold change in DM1 human myoblast; format: cell-based; conditions: 48 h; BMP7 50 ng/mL, Butyrate 100 nM, IGF2 200 ng/mL
# Experimental: Myoblasts were cultured 48 h in the presence of factors (BMP7 50 ng/mL, Butyrate 100 nM, IGF2 200 ng/mL).
# Myoblasts were cultured 96 h in the presence of factors (IGF2 200 ng/ml). […] Myoblasts were cultured 48 h in the presence of factors (IGF2 200 ng/mL).
# IGF2 was tested individually for its ability to promote proliferation and/or fusion of human muscle progenitor cells from an individual with myotonic dystrophy type 1 (hMD)—a muscular dystrophy caused by mutations in the DMPK1 gene. The effect of IGF2 on myogenic activity was assayed in biological triplicate across a range of concentrations centered around expected physiological levels by adding each factor to hMD myoblasts for 72 hours with daily media changes (DMEM +2% horse serum) and a second pulse of factors at the first media change. After 72 or 96 hours, cells were pulsed for 2-5 hours with EdU (30 uM), ethanol fixed, stained with Hoescht 3342, immunostained for proliferation—as measured by the percent of cells staining positive for EdU (% EdU)-, and immunostained for differentiation—as measured by the increase in cellular area staining positive for embryonic myosin heavy chain (% eMyHC) relative to the negative controls, which received media and vehicle only. Wells were imaged on a Keyence BZ-100 at 4×, the images quantified in Cell Profiler, and the statistics were computed in R. Additionally, RNA was extracted from myoblast and select transcript abundances quantified by qPCR.
# human myoblast cells = experiment: Human myoblast differentiation (% area eMyHC) with IGF2 and/or sodium butyrate; format: cell-based
# Experimental: Fresh media was added every 24 hours. […], cells were pulsed for 2-5 hours with EdU (30 uM), ethanol fixed, stained with Hoescht 3342, immunostained for proliferation—as measured by the percent of cells staining positive for EdU (% EdU)-, and immunostained for differentiation—as measured by the increase in cellular area staining positive for embryonic myosin heavy chain (% eMyHC) relative to the negative controls, which received media and vehicle only. The total area of eMyHc positive cells was analyzed, and treated cells were compared to cells treated with the vehicle alone. […] Significance was determined by a p-value less than 0.05 by the one-way ANOVA Tukey Honest Significant Difference test.
# Myoblast were cultured 96 h in the presence of IGF2 at indicated dose. Fresh media and IGF2 was added every 24 h.
# Fresh media was added every 24 hours.
# Significance was determined by a p-value less than 0.05 by the one-way ANOVA Tukey Honest Significant Difference test.
# [2] = system: 10 week old dystrophic mice (mdx); experiment: Duchenne muscular dystrophy model, 10 week old dystrophic mice (mdx); format: in vivo; conditions: 150 μg/kg with 1.2 g/kg sodium butyrate subcutaneously every 24 hours
# Experimental: Between 3-6 weeks old, the skeletal muscle of mdx mice undergoes severe necrosis followed by an increase in the activation of satellite cells to promote muscle regeneration. Treatment with IGF2 fusion polypeptide described herein can improve the regeneration process and therefore muscle health. Mice were fed ad libitum and housed under controlled conditions of lighting (12-hour light/12-hour dark) and temperature (22-24° C.). Mice were allowed to acclimate for 3 days prior to the initiation of the experiment. During the acclimation period, the weight, forelimb and both limb grip strength as well as in vivo tetanic force were assessed to determine the baseline strength of each mouse. 10 week old dystrophic mice (mdx) were injected with the IGF2 fusion polypeptide with sodium butyrate subcutaneously for 14 days. At day 7, forelimb and both grip strength are measured as described in Example 4. BrdU was injected on days 12, 13 and 14. On days 13, 14 and 15, forelimb and both limb grip strength and in vivo tetanic force were tested, and an endurance test to determine max distance and max speed was performed using methods described in Example 4.
# Mice were euthanized. The right tibialis anterior and gastrocnemius were collected, immersed in Tissue-TEK OCT and then flash frozen in a chilled isopentane bath precooled in liquid nitrogen and stored at −80° C. Tissue was sectioned and stained for Laminin to determine the cross sectional area (CSA) of muscle fibers, for eMyHC to measure new fiber formation and for BrdU to assess the proliferation rate. The left anterior tibialis and gastrocnemius were collected and flash frozen in liquid nitrogen for molecular analysis that include qPCR and western blot.
substance,measurement,setting,value
"IGF2: Human IGF2 amino acid sequence, SEQ ID NO: 29",MYF5 fold change,Aged human myoblasts; 48 h,0.409
same,MYOD1 fold change,Aged human myoblasts; 48 h,0.519
same,MYOG fold change,Aged human myoblasts; 48 h,5.756
same,MYF5 fold change,Aged human myoblasts; 72 h,0.708
same,MYOD1 fold change,Aged human myoblasts; 72 h,5.723
same,MYOG fold change,Aged human myoblasts; 72 h,0.018
same,cleavage of the IGF2 amino acid backbone,[1],is cleaved
same,MYF5 expression fold change compared to FM (vehicle),DM1 human myoblast,0.730
same,MYOD1 expression fold change compared to FM (vehicle),DM1 human myoblast,1.252
same,MYOG expression fold change compared to FM (vehicle),DM1 human myoblast,2.972
same,% eMyHC,"human myoblast cells; IGF2 0.015 ug/mL alone, 96 h (FIG. 3B/3C)",10.843%
same,% eMyHC,"human myoblast cells; IGF2 0.03 ug/mL alone, 48 hours (FIG. 4A/4B)",16.620%
same,bothlimb grip strength,[2],effective at improving
same,forelimb grip strength,[2],effective at improving
same,total work,[2],effective at improving
same,treadmill running distance,[2],effective at improving
same,treadmill running time to exhaustion,[2],effective at improving
same,muscle weight,[2]; vs vehicle,effective at improving
